Data published in ChEMBL document CHEMBL5608250, “Quinolinonyl Derivatives as Dual Inhibitors of the HIV-1 Integrase Catalytic Site and Integrase-RNA interactions” (ACS Med Chem Lett, 2024).
Calls of active or inactive are those of the source. The calls are words filed in the database; no cut-off is given here.

What was measured:
[1] = target: T1, Human immunodeficiency virus type 1 integrase (Human immunodeficiency virus 1, UniProt Q7ZJM1); assay: Inhibition of HIV-1 integrase catalytic activity incubated for 1 hrs in absence of LEDGF/p75 by HTRF assay
[2] = target: Human immunodeficiency virus type 1 integrase (Human immunodeficiency virus 1) (UniProt Q7ZJM1); assay: (§1) Inhibition of HIV1 integrase activity by measuring multimerization of His-tagged integrase/FLAG-tagged integrase incubated for 3 hrs by […] HTRF assay
[3] = Inhibition of His-tagged HIV-1 integrase/FLAG-tagged LEDGF (unknown origin) protein-protein interaction preincubated with integrase for 30 mins followed by LEDGF/p75 addition and measured after overnight incubation by HTRF assay
[4] = (§2) Inhibition of 6His-tagged recombinant HIV-1 integrase/biotinylated HIV-1 transactivation response element RNA interaction assessed as […] preincubated with integrase for 2 hrs followed by RNA addition and measured after 1 hrs by ALPHAscreen based AlphaLISA; design: species or system Human immunodeficiency virus 1
[5] = system: Human immunodeficiency virus 1; assay: as §2; settings: time 3.0 hrs
[6] = system: Human immunodeficiency virus 1; assay: (§3) Antiviral activity against VSV-G pseudotyped HIV-1 NL4.3 (isolated from HEK293T cells viral stock supernatant) infected in human MT4 cells assessed as inhibition of early stage viral replication preincubated for 3 to 4 hrs in presence of polybrene followed by fresh media replacement with compound and measured after 48 hrs by flow cytometric analysis; type: functional, organism-based; settings: Human immunodeficiency virus 1, NL4.3, MT4
[7] = system: Human immunodeficiency virus 1; assay: as §3, with “from compound pretreated” for “from”, “late” for “early”; type: functional, organism-based; settings: time 51-52 hrs
[8] = system: Human immunodeficiency virus 1; assay: as §3, with “analysis relative to control” for “analysis”; type: functional; settings: time 51-52 hrs
[9] = target: T1, Human immunodeficiency virus type 1 integrase; assay: as §1
[10] = system: Human immunodeficiency virus 1; assay: Antiviral activity against VSV-G pseudotyped HIV-1 NL4.3 (isolated from compound pretreated HEK293T cells viral stock supernatant) infected in human MT4 cells assessed as inhibition of late stage viral replication at 25 microM preincubated for 3 to 4 hrs in presence of polybrene followed by fresh media replacement with compound and measured after 48 hrs by flow cytometric analysis relative to …; type: functional; settings: Human immunodeficiency virus 1, NL4.3, MT4, time 51-52 hrs

Human immunodeficiency virus type 1 integrase (Human immunodeficiency virus 1), sequence (Q7ZJM1 as listed by the source): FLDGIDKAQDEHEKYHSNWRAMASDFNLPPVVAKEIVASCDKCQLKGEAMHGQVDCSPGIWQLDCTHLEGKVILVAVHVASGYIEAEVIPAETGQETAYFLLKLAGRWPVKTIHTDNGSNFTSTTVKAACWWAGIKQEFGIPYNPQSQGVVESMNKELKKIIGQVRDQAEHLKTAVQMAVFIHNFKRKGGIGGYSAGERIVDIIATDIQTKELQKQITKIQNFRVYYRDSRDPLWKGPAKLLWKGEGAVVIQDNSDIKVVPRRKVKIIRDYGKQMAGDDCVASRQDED
T1 sequence (Q7ZJM1 whole entry): as the sequence (Q7ZJM1 as listed by the source) above

For O=C(O)/C(O)=C/C(=O)c1cn(Cc2ccc(F)cc2)c2ccc(C(=O)c3ccc(C(=O)O)cc3)cc2c1=O, which IC50 [1] is on record?
Its IC50 is 77 nM.

What about the inhibition [2] of the same molecule?
Its inhibition is “Active”.

What about the inhibition [3] of the same molecule?
The inhibition was “inactive”.

What about the IC50 [4] of the same molecule?
Its IC50 is 1570 nM.

For CCOC(=O)/C(O)=C/C(=O)c1cn(Cc2ccc(F)cc2)c2ccc(C(=O)c3ccc(C(=O)OCC)cc3)cc2c1=O, which IC50 [1] is on record?
The IC50 was 741 nM.

What about the inhibition [2] of the same molecule?
The inhibition was “Active”.

What about the inhibition [3] of the same molecule?
The inhibition was “inactive”.

And the inhibition [5]?
Its inhibition is “Active”.

Which IC50 [1] does the source give for CN(C)c1cc2c(cc1C(=O)/C=C(\O)C(=O)O)c(=O)c(C(=O)/C=C(\O)C(=O)O)cn2Cc1ccc(F)cc1 here?
The IC50 was 181 nM.

What about the inhibition [2] of the same molecule?
Its inhibition is “Active”.

What about the inhibition [3] of the same molecule?
Its inhibition is “inactive”.

And the IC50 [4]?
Its IC50 is 750 nM.

What about the EC50 [6] of the same molecule?
Its EC50 is over 6250 nM.

What about the Activity [7] of the same molecule?
The Activity was “inactive”.

What about the “inhibition (INH)” value [8] of the same molecule?
Its value is 38%.

Which results are given for CCOC(=O)/C(O)=C/C(=O)c1cc2c(=O)c(C(=O)/C=C(\O)C(=O)OCC)cn(Cc3ccc(F)cc3)c2cc1N(C)C?
IC50 [1]: 480 nM; EC50 [9]: > 200000 nM; inhibition [3]: inactive; IC50 [4]: 1040 nM; EC50 [6]: > 6250 nM; Activity [7]: inactive; inhibition (INH) [8]: 50%

Which IC50 [1] does the source give for CCOC(=O)/C(O)=C/C(=O)c1cc2c(=O)c(C(=O)/C=C(\O)C(=O)OCC)cn(Cc3ccc(F)cc3)c2cc1N1CCN(C)CC1 here?
Its IC50 is 782 nM.

What about the inhibition [2] of the same molecule?
The inhibition was “Active”.

And the inhibition [3]?
The inhibition was “inactive”.

What about the IC50 [4] of the same molecule?
The IC50 was 4190 nM.

With CCOC(=O)/C(O)=C/C(=O)c1ccc2c(c1)c(=O)c(C(=O)/C=C(\O)C(=O)OCC)cn2Cc1ccc(F)cc1 as the molecule, how does the IC50 [1] read?
Its IC50 is 800 nM.

And the inhibition [2]?
The inhibition was “Active”.

What about the inhibition [3] of the same molecule?
Its inhibition is “inactive”.

And the IC50 [4]?
The IC50 was 1980 nM.

Which results are given for O=C(O)c1cn(Cc2ccc(F)cc2)c2ccc(Oc3ccccc3)cc2c1=O?
IC50 [1]: > 200000 nM; inhibition [2]: Active; inhibition [3]: inactive; inhibition [5]: Active

With CCOC(=O)c1cn(Cc2ccc(F)cc2)c2ccc(OCc3cccc4ccccc34)cc2c1=O as the molecule, how does the IC50 [1] read?
The IC50 was 41900 nM.

And the EC50 [9]?
The EC50 was over 200000 nM.

And the inhibition [3]?
The inhibition was “inactive”.

And the inhibition [5]?
The inhibition was “Active”.

With CCOC(=O)c1cn(Cc2ccc(F)cc2)c2ccc(OCc3ccc(OCc4ccccc4)cc3)cc2c1=O as the molecule, how does the IC50 [1] read?
Its IC50 is over 200000 nM.

What about the inhibition [2] of the same molecule?
The inhibition was “Active”.

What about the inhibition [3] of the same molecule?
The inhibition was “inactive”.

And the inhibition [5]?
The inhibition was “Active”.

Which results are given for O=C(O)/C(O)=C/C(=O)c1ccc2c(c1)c(=O)c(C(=O)/C=C(\O)C(=O)O)cn2Cc1ccc(F)cc1?
inhibition [2]: Active; inhibition [3]: Active; IC50 [4]: 840 nM; EC50 [6]: 2270 nM; inhibition at 25 µM [10]: 40%

For O=C(O)c1cn(Cc2ccc(F)cc2)c2ccc(OCc3cccc4ccccc34)cc2c1=O, which IC50 [1] is on record?
Its IC50 is 36500 nM.

And the EC50 [9]?
Its EC50 is over 200000 nM.

And the inhibition [3]?
Its inhibition is “inactive”.

What about the inhibition [5] of the same molecule?
The inhibition was “Active”.

For O=C(O)c1cn(Cc2ccc(F)cc2)c2ccc(OCc3ccc(F)cc3)cc2c1=O, which IC50 [1] is on record?
The IC50 was over 200000 nM.

What about the inhibition [2] of the same molecule?
Its inhibition is “inactive”.

What about the inhibition [3] of the same molecule?
Its inhibition is “inactive”.

What about the inhibition [5] of the same molecule?
The inhibition was “Active”.

For O=C(O)c1cn(Cc2ccc(F)cc2)c2ccc(OCc3ccc(OCc4ccccc4)cc3)cc2c1=O, which IC50 [1] is on record?
Its IC50 is 6280 nM.

What about the EC50 [9] of the same molecule?
The EC50 was over 2000 nM.

What about the inhibition [3] of the same molecule?
Its inhibition is “inactive”.

And the inhibition [5]?
Its inhibition is “Active”.

What does the source list for O=C(O)/C(O)=C/C(=O)c1ccc2[nH]cc(C(=O)/C=C(\O)C(=O)O)c(=O)c2c1?
IC50 [1]: 3140 nM; inhibition [2]: Active; inhibition [3]: Active; IC50 [4]: 1330 nM

Which IC50 [1] does the source give for CCOC(=O)/C(O)=C/C(=O)c1ccc2[nH]cc(C(=O)/C=C(\O)C(=O)OCC)c(=O)c2c1 here?
Its IC50 is 2340 nM.

And the inhibition [2]?
The inhibition was “Active”.

And the inhibition [3]?
Its inhibition is “Active”.

What about the IC50 [4] of the same molecule?
The IC50 was 2220 nM.
